Read-outs that look alike come from different tables or passages of the source.
Columns and labels:
[1] = Stability in Liver Microsomes (rat); type: in vitro ADME; conditions: 1 μM, 0.5 mg protein/mL, NADPH, 60 minutes, 37° C., pH 7.4
Procedure: (§1) Various compounds were tested for their stability in human, monkey, dog, rat, and mouse liver microsomes. At a final concentration of 1 μM, compounds were incubated with either human, monkey, dog, rat, or mouse liver microsomes (0.5 mg protein/mL) in the presence of an NADPH-solution for 60 minutes at 37° C., pH 7.4 in phosphate buffer. Incubations were performed in duplicate. Reactions were terminated by the addition of methanol. The incubation solution was vortexed and transferred into a 96-well plate. The plate was sealed and centrifuged at approximately 3500 rpm for approximately 10 minutes. After centrifugation, the plate was loaded into 96-well plate autosampler and analyzed by LC/MS. Values are reported as percent of compound remaining after 1 hour.

[2] = Stability in Liver Microsomes (monkey); type: in vitro ADME; conditions: 1 μM, 0.5 mg protein/mL, NADPH, 60 minutes, 37° C., pH 7.4
Procedure: as §1

[3] = Stability in Liver Microsomes (mouse); type: in vitro ADME; conditions: 1 μM, 0.5 mg protein/mL, NADPH, 60 minutes, 37° C., pH 7.4
Procedure: as §1

[4] = Stability in Liver Microsomes (human); type: in vitro ADME; conditions: 1 μM, 0.5 mg protein/mL, NADPH, 60 minutes, 37° C., pH 7.4
Procedure: as §1

[5] = target: T1, human MC-4R (Homo sapiens, UniProt P32245); experiment: Biological Assay: inhibition of AgRP functional interaction with MC-4R in presence of αMSH (cAMP production); type: cell-based; conditions: HEK293 cells expressing human MC-4R, AgRP83-132 and αMSH present
T1 construct: expressed in transfected cells
T1 sequence (P32245 whole entry): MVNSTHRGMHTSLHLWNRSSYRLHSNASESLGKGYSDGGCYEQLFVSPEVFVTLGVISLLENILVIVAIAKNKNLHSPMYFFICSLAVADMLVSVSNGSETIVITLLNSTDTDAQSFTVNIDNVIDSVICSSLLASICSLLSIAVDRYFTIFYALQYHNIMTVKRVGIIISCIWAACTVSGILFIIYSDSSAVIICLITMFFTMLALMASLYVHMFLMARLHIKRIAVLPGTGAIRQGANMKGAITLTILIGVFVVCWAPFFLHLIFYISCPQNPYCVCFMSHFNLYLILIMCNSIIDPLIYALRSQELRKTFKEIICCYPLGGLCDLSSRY
Procedure: The following method is illustrative of techniques that may be employed to measure the ability of the compounds of Formula (I) to functionally modulate the binding of AgRP to melanocortin receptors. In particular, the assay below measures the ability of compounds of Formula (I) or pharmaceutically acceptable salts thereof to functionally modulate the binding of AgRP to MC-4R in the presence of a MC-4R agonist, such as alpha-MSH.
HEK293 cells stably expressing human MC-4R receptors were grown in high glucose Dulbecco's Modified Eagle Medium (DMEM) with 4500 mg glucose/L, L-glutamine, NaHCO3, pyrdoxin HCl, 10 mM HEPES (pH 7.4), 0.1 mM NEAA (non-essential amino acid medium) (GIBCO Cat#11140-050), 10% fetal bovine serum and 700 μg/mL G418. Cells were grown in T-225 flasks at 37° C. with CO2 and humidity control.
On the day of assay, cells were washed twice with phosphate buffered saline without calcium and magnesium (PBS) and incubated with 10 mL PBS until the cells were detached from the flask. The detached cells were centrifuged at 240 g for 5 min. The cell pellet was re-suspended in assay buffer (Earle's balanced salt solution (Sigma E3024) supplemented with 10 mM HEPES, pH 7.4, 0.5 mM IBMX and protease inhibitor cocktail (Roche, 1 complete tablet/75 mL buffer)).
The inhibitory or enhancement effect of compounds on AgRP activity was measured in a multi-component assay containing testing compounds, AgRP83-132 (human, Phoenix Pharma, cat no. 003-53), cells expressing MC-4R, and αMSH (Bachem, cat no. H-1075). Test compounds, AgRP and αMSH were diluted with assay buffer. Test compounds and AgRP were mixed to 4 times of the final concentration and incubated at room temperature for 30 min. Five μL of testing compound/AgRP solution followed with 10 μL of cells (20,000 cells/well) were added to each well of a 384-well reaction plate before 5 μL of αMSH was added. Cells were stimulated with αMSH for an additional 30 min at 37° C.
Stimulation of cells was stopped by adding a lysis buffer and cells were lysed. The intracellular concentration of cAMP may be measured by various techniques known to one of skill in the art including, but not limited to, fluorescence polarization (FP) and time-resolved fluorescence (TRF).
The inhibition was shown by an increase in MC-4R mediated cAMP production.

[6] = Stability in Liver Microsomes (dog); type: in vitro ADME; conditions: 1 μM, 0.5 mg protein/mL, NADPH, 60 minutes, 37° C., pH 7.4
Procedure: as §1

[7] = Pharmacokinetic screening in rats (plasma and brain); conditions: rat, 5 mg/kg PO; for concentration at 2 h: male, Sprague Dawley, po, 5 mg/kg, 2 hour time point; for Brain - 24 hours AUC (h * ng/g): 24 hour study
[8] = read-out: Average EC50 (nM) in Biological Assay
[9] = plasma, Plasma - 2 hours (ng/mL)

Stability in Liver Microsomes (% remaining after 1 hour incubation) Rat [1] [%] | Stability in Liver Microsomes (% remaining after 1 hour incubation) Monkey [2] [%] | Stability in Liver Microsomes (% remaining after 1 hour incubation) Mouse [3] [%] | Stability in Liver Microsomes (% remaining after 1 hour incubation) Human [4] [%] | EC50 [5, 8] [nM] | Stability in Liver Microsomes (% remaining after 1 hour incubation) Dog [6] [%] | concentration at 2 h ([7]; brain, Brain - 2 hours (ng/g)) [ng/g] | concentration at 2 h [7, 9] [ng/mL] | SMILES | Brain - 24 hours AUC (h * ng/g) [7] | EC50 ([5]; Average EC50 (nM) in Biological Assay) [nM]
66 | 47 | 86 | 84 | 372 | 78 | – | – | CCCC1CCC(c2csc(N(CCC(=O)O)Cc3ccc(C)s3)n2)CC1 (stereo not shown) [Example 21, 3-{(5-Methyl-thiophen-2-ylmethyl)-[4-(4-propyl-cyclohexyl)-thiazol-2-yl]-amino}-propionic acid] | – | –
15 | 56 | 60 | 71 | 366 | 94 | – | – | Cc1ccc(CN(CCC(=O)O)c2nc(C3CCC(F)(F)CC3)cs2)s1 [Example 23, Sodium; 3-[[4-(4,4-difluoro-cyclohexyl)-thiazol-2-yl]-(5-methyl-thiophen-2-ylmethyl)-amino]-propionate] | – | –
69 | 77 | 81 | 99 | 80 | 69 | 552 | 10500 | Cc1cc(CN(CCC(=O)O)c2nc(C3CCC(C(C)(C)C)CC3)cs2)c(C)s1 (stereo not shown) [Example 25, 3-[[4-(4-tert-Butyl-cyclohexyl)-thiazol-2-yl]-(2,5-dimethyl-thiophen-3-ylmethyl)-amino]-propionic acid] | +++ (values between 20,000 and 10,000 h*ng/g) | –
83 | 88 | 91 | 83 | 1570 | 94 | – | – | COC1CCC(c2csc(N(CCC(=O)O)Cc3ccc(C)s3)n2)CC1 (stereo not shown) [Example 31, 3-[[4-(4-Methoxy-cyclohexyl)-thiazol-2-yl]-(5-methyl-thiophen-2-ylmethyl)-amino]-propionic acid] | – | –
90 | 70 | 99 | 71 | 145 | 93 | – | 8400 | Cc1ccc(CN(CCC(=O)O)c2nc([C@H]3CC[C@H](c4ccccc4)CC3)cs2)s1 [Example 38, Sodium; 3-{(5-methyl-thiophen-2-ylmethyl)-[4-(trans-4-phenyl-cyclohexyl)-thiazol-2-yl]-amino}-propionate] | ++++ (values above 20,000 h*ng/g) | –
67 | 85 | 90 | 61 | 219 | 36 | – | – | Cc1cc(CN(CCC(=O)[O-])c2nc(C3CCC(c4ccccc4)CC3)cs2)c(C)s1.[Na+] (stereo not shown) [Example 40, Sodium; 3-{(2,5-dimethyl-thiophen-3-ylmethyl)-[4-(4-phenyl-cyclohexyl)-thiazol-2-yl]-amino}-propionate] | – | –
64 | 78 | 68 | 49 | 70 | 80 | – | – | Cc1ccc(CN(CCC(=O)O)c2nc(C3CCC(C)(C)CC3)cs2)s1 [Example 55, 3-[[4-(4,4-Dimethyl-cyclohexyl)-thiazol-2-yl]-(5-methyl-thiophen-2-ylmethyl)-amino]-propionic acid] | – | –
86 | 83 | 87 | 92 | 191 | 99 | – | – | Cc1ccc(CN(CCC(=O)[O-])c2nc(C3CCC(C4CCCCC4)CC3)cs2)s1.[Na+] (stereo not shown) [Example 60, Sodium; 3-[(4-bicyclohexyl-4-yl-thiazol-2-yl)-(5-methyl-thiophen-2-ylmethyl)-amino]-propionate] | – | –
40 | 13 | 74 | 68 | 246 | 84 | – | – | Cc1ccc(CN(CCC(=O)[O-])c2nc(C3CCC(c4ccc(F)cc4)CC3)cs2)s1.[Na+] (stereo not shown) [Example 61, Sodium; 3-[{4-[4-(4-fluoro-phenyl)-cyclohexyl]-thiazol-2-yl}-(5-methyl-thiophen-2-ylmethyl)-amino]-propionate] | – | –
54 | 2 | 52 | 40 | – | 2 | 1140 | 3850 | CC(C)c1ccc(-c2csc(N(CCC(=O)[O-])Cc3cccs3)n2)cc1.[Na+] [Reference Compound A, Sodium 3-{[4-(4-isopropyl-phenyl)-thiazol-2-yl]-thiophen-2-ylmethyl-amino}-propionate, reference compound] | + (values less than 5,000 h*ng/g) | –

SMILES | Stability in Liver Microsomes (% remaining after 1 hour incubation) Rat [1] [%] | Stability in Liver Microsomes (% remaining after 1 hour incubation) Monkey [2] [%] | Stability in Liver Microsomes (% remaining after 1 hour incubation) Mouse [3] [%] | Stability in Liver Microsomes (% remaining after 1 hour incubation) Human [4] [%] | EC50 [5, 8] [nM] | Stability in Liver Microsomes (% remaining after 1 hour incubation) Dog [6] [%] | concentration at 2 h ([7]; brain, Brain - 2 hours (ng/g)) [ng/g] | concentration at 2 h [7, 9] [ng/mL] | Brain - 24 hours AUC (h * ng/g) [7] | EC50 ([5]; Average EC50 (nM) in Biological Assay) [nM]
Cc1cc(CN(CCC(=O)O)c2nc(C3CCC(C(C)C)CC3)cs2)c(C)s1 (stereo not shown) [Example 26, 3-{(2,5-Dimethyl-thiophen-3-ylmethyl)-[4-(4-isopropyl-cyclohexyl)-thiazol-2-yl]-amino}-propionic acid] | 66 | 67 | 71 | 79 | – | 72 | 942 | 6260 | +++ (values between 20,000 and 10,000 h*ng/g) | 276

From patent US8563742B2, “Substituted aminothiazole derivatives, pharmaceutical compositions, and methods of use” (High Point Pharmaceuticals, LLC, priority 2008, dated 2013)
